Each structure is given as a SMILES string.

The test system of assay [1] is genotype 3a (S52) stable HCV replicon in Huh-7-derived cells. Kind of assay: Stable subgenomic HCV replicon EC50, genotype 3a (Renilla luciferase). In kind it is cell-based, hepatitis C virus. To be noted: Hepatitis C virus, 72 h, read-out: EC50 3A RLUC. (In antiviral work, replicon cells carry a viral genome segment that copies itself.)
Assay [2] deals with genotype 1a NS3/4a protease inhibitor resistant variant R155K transient HCV replicon in Huh-7-derived cells. Kind of assay: Transient-transfected HCV replicon EC50, genotype 1a R155K. In kind it is cell-based, hepatitis C virus. The conditions noted are these: Hepatitis C virus, 72 h, read-out: EC50 1A R155K, transient-transfected replicon genotype 1a R155K resistant variant, 72 h.

Assay [3] has as its system genotype 1a (H77) stable HCV replicon in Huh-7-derived cells. Kind of assay: Stable subgenomic HCV replicon EC50, genotype 1a (Renilla luciferase). Type of assay: cell-based, hepatitis C virus. To be noted: Hepatitis C virus, stable replicon genotype 1a, 72 h, read-out: EC50 1A RLUC. The procedure, abridged: (§1)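 Compounds, three-fold diluted, were applied to Huh-7-derived cells harbouring luciferase replicons (genotype 1a H77, 1b Con1, 2a JFH-1, 4a ED43, with strain-specific adaptive mutations). Seventy-two hours later, intracellular replication was gauged by Renilla luciferase activity and EC50 derived by regression.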

In assay [4] the test system is genotype 4a (ED43) stable HCV replicon in Huh-7-derived cells. Put plainly: Stable subgenomic HCV replicon EC50, genotype 4a (Renilla luciferase). In kind it is cell-based, hepatitis C virus. To be noted: Hepatitis C virus, 72 h, read-out: EC50 4A RLUC. The procedure, abridged:
as §1

The subject of assay [5] is genotype 1a (H77) wild type transient HCV replicon in Huh-7-derived cells. Put plainly: Transient-transfected HCV replicon EC50, genotype 1a wild type. Type of assay: cell-based, hepatitis C virus. The conditions noted are these: Hepatitis C virus, 72 h, transient-transfected replicon genotype 1a wild type, read-out: EC50 1A WT.
The target of assay [6] is HCV NS3 protease domain genotype 3a (Hepatitis C virus genotype 3a, UniProt Q81258). Kind of assay: Ki determination, NS3 protease genotype 3a (fluorogenic depsipeptide substrate). Type of assay: biochemical. To be noted: 200 pM enzyme, NS4A peptide. The procedure, abridged: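 The NS3 protease domain (aa 1-181) with 20 μM NS4A peptide was used at 50 pM with 4 μM substrate (1b) or at 200 pM with 2 μM substrate (3a). Inhibitors (100 nM-5 pM) were pre-incubated 1 h at room temperature in HEPES/glycerol/DTT buffer with 10% DMSO. Steady-state rates (90-120 min) gave Ki via the Morrison equation, corrected for active enzyme and [S]/Km.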
HCV NS3 protease domain genotype 3a, sequence (Q81258 whole entry, looked up, the tested form may be a part): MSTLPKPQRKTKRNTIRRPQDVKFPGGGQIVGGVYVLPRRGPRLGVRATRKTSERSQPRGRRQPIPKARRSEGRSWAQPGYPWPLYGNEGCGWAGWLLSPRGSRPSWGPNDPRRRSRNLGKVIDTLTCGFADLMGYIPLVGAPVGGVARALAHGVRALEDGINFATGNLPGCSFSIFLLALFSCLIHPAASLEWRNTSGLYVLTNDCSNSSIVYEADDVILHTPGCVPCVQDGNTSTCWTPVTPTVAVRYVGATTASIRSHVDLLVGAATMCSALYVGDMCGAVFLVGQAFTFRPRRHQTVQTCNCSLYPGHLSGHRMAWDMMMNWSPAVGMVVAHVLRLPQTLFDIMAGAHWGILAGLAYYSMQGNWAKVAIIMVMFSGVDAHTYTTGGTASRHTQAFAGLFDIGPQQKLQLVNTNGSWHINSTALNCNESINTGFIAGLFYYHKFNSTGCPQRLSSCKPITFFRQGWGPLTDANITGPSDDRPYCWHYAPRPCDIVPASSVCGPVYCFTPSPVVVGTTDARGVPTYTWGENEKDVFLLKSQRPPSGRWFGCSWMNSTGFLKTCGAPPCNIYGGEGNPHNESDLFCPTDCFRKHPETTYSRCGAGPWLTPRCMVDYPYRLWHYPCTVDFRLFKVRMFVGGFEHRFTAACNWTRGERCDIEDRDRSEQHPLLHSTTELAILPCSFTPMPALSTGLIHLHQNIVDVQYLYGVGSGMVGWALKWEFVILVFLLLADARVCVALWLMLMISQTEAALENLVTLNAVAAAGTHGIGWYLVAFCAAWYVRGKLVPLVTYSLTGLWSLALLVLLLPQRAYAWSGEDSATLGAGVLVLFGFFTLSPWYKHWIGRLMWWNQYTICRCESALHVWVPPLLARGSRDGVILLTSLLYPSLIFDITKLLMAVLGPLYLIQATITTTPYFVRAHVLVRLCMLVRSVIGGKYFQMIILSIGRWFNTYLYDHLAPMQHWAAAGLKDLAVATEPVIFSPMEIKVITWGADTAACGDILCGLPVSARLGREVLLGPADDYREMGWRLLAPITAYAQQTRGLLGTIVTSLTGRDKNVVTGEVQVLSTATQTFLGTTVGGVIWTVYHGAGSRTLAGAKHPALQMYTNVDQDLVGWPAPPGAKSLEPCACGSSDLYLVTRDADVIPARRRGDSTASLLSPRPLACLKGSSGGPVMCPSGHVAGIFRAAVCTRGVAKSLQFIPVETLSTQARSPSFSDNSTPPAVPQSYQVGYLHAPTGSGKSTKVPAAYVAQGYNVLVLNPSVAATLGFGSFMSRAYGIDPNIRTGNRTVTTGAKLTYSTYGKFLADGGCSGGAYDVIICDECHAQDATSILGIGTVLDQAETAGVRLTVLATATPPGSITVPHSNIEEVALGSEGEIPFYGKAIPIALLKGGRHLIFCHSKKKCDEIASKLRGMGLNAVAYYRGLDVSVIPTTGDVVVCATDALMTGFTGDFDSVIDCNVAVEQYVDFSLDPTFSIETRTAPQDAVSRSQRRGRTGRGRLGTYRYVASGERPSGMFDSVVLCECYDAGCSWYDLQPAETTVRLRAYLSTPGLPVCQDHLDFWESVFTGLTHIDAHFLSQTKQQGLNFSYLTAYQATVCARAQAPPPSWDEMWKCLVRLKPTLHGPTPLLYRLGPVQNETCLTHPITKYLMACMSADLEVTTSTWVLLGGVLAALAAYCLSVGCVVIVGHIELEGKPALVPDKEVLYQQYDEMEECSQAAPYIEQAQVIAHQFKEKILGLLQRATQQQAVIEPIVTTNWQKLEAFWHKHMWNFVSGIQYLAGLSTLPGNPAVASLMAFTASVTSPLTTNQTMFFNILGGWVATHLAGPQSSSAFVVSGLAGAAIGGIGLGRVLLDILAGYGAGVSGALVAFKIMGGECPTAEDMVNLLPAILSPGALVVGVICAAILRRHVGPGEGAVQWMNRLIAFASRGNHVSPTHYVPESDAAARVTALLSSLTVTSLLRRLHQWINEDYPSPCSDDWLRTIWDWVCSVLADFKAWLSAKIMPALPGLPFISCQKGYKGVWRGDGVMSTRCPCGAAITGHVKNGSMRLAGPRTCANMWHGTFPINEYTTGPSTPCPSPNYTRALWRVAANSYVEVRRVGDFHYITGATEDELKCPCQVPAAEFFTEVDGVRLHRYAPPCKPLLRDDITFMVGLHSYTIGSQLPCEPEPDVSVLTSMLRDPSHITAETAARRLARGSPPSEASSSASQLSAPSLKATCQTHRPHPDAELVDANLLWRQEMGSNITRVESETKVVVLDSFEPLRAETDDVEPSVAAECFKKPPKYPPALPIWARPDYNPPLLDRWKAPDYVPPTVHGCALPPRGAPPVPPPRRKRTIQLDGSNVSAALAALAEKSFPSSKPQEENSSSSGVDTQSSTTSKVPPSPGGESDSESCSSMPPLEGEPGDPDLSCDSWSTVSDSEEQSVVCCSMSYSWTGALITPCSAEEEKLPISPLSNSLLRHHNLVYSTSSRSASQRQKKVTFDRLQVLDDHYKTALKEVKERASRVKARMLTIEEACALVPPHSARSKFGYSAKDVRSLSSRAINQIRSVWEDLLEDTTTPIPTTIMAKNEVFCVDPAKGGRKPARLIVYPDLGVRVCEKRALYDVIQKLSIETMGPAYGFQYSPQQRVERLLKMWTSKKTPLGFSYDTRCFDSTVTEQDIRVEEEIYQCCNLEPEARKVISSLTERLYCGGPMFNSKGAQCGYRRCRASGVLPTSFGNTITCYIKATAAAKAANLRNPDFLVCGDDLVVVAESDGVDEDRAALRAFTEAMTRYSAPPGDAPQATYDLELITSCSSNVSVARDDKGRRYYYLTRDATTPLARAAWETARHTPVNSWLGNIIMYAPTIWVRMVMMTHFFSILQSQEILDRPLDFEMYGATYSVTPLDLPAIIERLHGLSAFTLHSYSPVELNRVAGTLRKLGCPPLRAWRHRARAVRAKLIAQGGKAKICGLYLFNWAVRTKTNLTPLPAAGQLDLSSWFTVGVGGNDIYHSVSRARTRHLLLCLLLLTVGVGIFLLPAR

Assay [7] has as its system genotype 3a (S52) wild type transient HCV replicon in Huh-7-derived cells. Kind of assay: Transient-transfected HCV replicon EC50, genotype 3a wild type. Type of assay: cell-based, hepatitis C virus. The conditions noted are these: Hepatitis C virus; transient-transfected replicon genotype 3a wild type, 72 h; read-out: EC50 3A WT.
Assay [8] has as its system genotype 1b (Con1) wild type transient HCV replicon in Huh-7-derived cells. Kind of assay: Transient-transfected HCV replicon EC50, genotype 1b wild type. In kind it is cell-based, hepatitis C virus. The conditions noted are these: Hepatitis C virus, 72 h, transient-transfected replicon genotype 1b wild type, read-out: EC50 1B WT.
Assay [9] concerns genotype 2a (JFH-1) stable HCV replicon in Huh-7-derived cells. Kind of assay: Stable subgenomic HCV replicon EC50, genotype 2a (Renilla luciferase). In kind it is cell-based, hepatitis C virus. To be noted: Hepatitis C virus, stable replicon genotype 2a, 72 h, read-out: EC50 2A RLUC. A digest of the protocol:
as §1

Assay [10] has as its system genotype 1b NS3/4a protease inhibitor resistant variant D168A transient HCV replicon in Huh-7-derived cells. Put plainly: Transient-transfected HCV replicon EC50, genotype 1b D168A. Type of assay: cell-based, hepatitis C virus. The conditions noted are these: Hepatitis C virus, 72 h, read-out: EC50 1B D168A, transient-transfected replicon genotype 1b D168A resistant variant, 72 h.

Assay [11] has as its system genotype 1b (Con1) stable HCV replicon in Huh-7-derived cells. Kind of assay: Stable subgenomic HCV replicon EC50, genotype 1b (Renilla luciferase). In kind it is cell-based, hepatitis C virus. To be noted: Hepatitis C virus, stable replicon genotype 1b, 72 h, read-out: EC50 1B RLUC. The procedure, abridged: as §1

A word on the EC50: it is the concentration needed to bring the measured effect to its halfway point. As a reminder, the Ki is the equilibrium dissociation constant of an inhibitor or competing ligand from its target. Lower therefore signals tighter binding. Consider `CC[C@@H]1[C@@H]2CN(C(=O)[C@H](C(C)(C)C)NC(=O)O[C@@H]3C[C@H]3CCCCC(F)(F)c3nc4ccc(OC)cc4nc3O2)[C@@H]1C(=O)N[C@]1(C(=O)NS(=O)(=O)C2(C)CC2)C[C@H]1C(F)F` [Example 17, (1aR,5S,8S,9S,10R,22aR)-5-tert-butyl-N-[(1R,2R)-2-(difluoromethyl)-1-{[(1-methylcyclopropyl)sulfonyl]carbamoyl}cyclopropyl]-9-ethyl-18,18-difluoro-14-methoxy-3,6-dioxo-1,1a,3,4,5,6,9,10,18,19,20,21,22,22a-tetradecahydro-8H-7,10-methanocyclopropa[18,19][1,10,3,6]dioxadiazacyclononadecino[11,12-b]quinoxaline-8-carboxamide], for which the EC50 in assay [1] turned out to be 15 nM; in assay [2], 2.8 nM; in assay [3], 3.9 nM; in assay [4] it was 2.9 nM; in assay [5], 2.9 nM; in [7], 6.1 nM. Also, the EC50 in [8] worked out at 1.7 nM; in assay [9] it was 3.7 nM; in assay [10], 4.3 nM; in assay [11], 3.3 nM. In assay [6], this molecule had a Ki of 0.06 nM.
For `CCOc1ccc2nc3c(nc2c1)O[C@H]1CN(C(=O)[C@H](C(C)(C)C)NC(=O)O[C@@H]2C[C@H]2CCCCC3)[C@H](C(=O)N[C@]2(C(=O)NS(=O)(=O)C3(C)CC3)C[C@H]2C(F)F)[C@@H]1CC` [Example 69, (1aR,5S,8S,9S,10R,22aR)-5-tert-butyl-N-[(1R,2R)-2-(difluoromethyl)-1-{[(1-methylcyclopropyl)sulfonyl]carbamoyl}cyclopropyl]-14-ethoxy-9-ethyl-3,6-dioxo-1,1a,3,4,5,6,9,10,18,19,20,21,22,22a-tetradecahydro-8H-7,10-methanocyclopropa[18,19][1,10,3,6]dioxadiazacyclononadecino[11,12-b]quinoxaline-8-carboxamide], the EC50 stood at 64 nM in [1]; 15 nM in assay [2]; 5.2 nM in assay [3]; 5.8 nM in assay [4]; 8.2 nM in assay [5]; 42 nM in assay [7]. The EC50 in [8] was 3.9 nM; in [9] it was 11 nM; in assay [10] it was 28 nM; in [11] it was 4.9 nM. In assay [6], this molecule had a Ki of 0.17 nM.
For the molecule `COc1ccc2nc3c(nc2c1)O[C@H]1CN(C(=O)[C@H](C(C)(C)C)NC(=O)O[C@@H]2C[C@H]2CCCCC3(F)F)[C@H](C(=O)N[C@]2(C(=O)NS(=O)(=O)C3(C)CC3)C[C@H]2C(F)F)[C@@H]1C` [Example 46, (1aR,5S,8S,9S,10R,22aR)-5-tert-butyl-N-[(1R,2R)-2-(difluoromethyl)-1-{[(1-methylcyclopropyl)sulfonyl]carbamoyl}cyclopropyl]-18,18-difluoro-14-methoxy-9-methyl-3,6-dioxo-1,1a,3,4,5,6,9,10,18,19,20,21,22,22a-tetradecahydro-8H-7,10-methanocyclopropa[18,19][1,10,3,6]dioxadiazacyclononadecino[11,12-b]quinoxaline-8-carboxamide], the EC50 is 17 nM in [1]; 3.2 nM in assay [2]; 3.1 nM in [3]; 2.5 nM in assay [4]; 2.4 nM in [5]; 6.79 nM in [7]. Further, the EC50 in assay [8] is 1.2 nM; in assay [9] it was 3.8 nM; in [10], 4.5 nM; in assay [11] it was 2.7 nM. Moreover, the affinity in assay [6], expressed as Ki, was 0.05 nM.
As for `CC[C@@H]1[C@@H]2CN(C(=O)[C@H](C(C)(C)C)NC(=O)O[C@@H]3C[C@H]3CCCCCc3nc4ccc(OC)cc4nc3O2)[C@@H]1C(=O)N[C@]1(C(=O)NS(=O)(=O)C2(C)CC2)C[C@H]1C(F)F` [Example 1, (1aR,5S,8S,9S,10R,22aR)-5-tert-butyl-N-[(1R,2R)-2-(difluoromethyl)-1-{[(1-methylcyclopropyl)sulfonyl]carbamoyl}cyclopropyl]-9-ethyl-14-methoxy-3,6-dioxo-1,1a,3,4,5,6,9,10,18,19,20,21,22,22a-tetradecahydro-8H-7,10-methanocyclopropa[18,19][1,10,3,6]dioxadiazacyclononadecino[11,12-b]quinoxaline-8-carboxamide], the EC50 was 46 nM in assay [1]; 4.9 nM in assay [2]; 4.4 nM in assay [3]; 3.1 nM in [4]; 3.2 nM in assay [5]; 17 nM in assay [7]. For the same molecule, the EC50 in assay [8] came to 2.2 nM; in assay [9] it was 4.1 nM; in [10], 17 nM; in assay [11], 3.9 nM. In assay [6], the affinity corresponds to a Ki of 0.07 nM.
Consider `CC[C@@H]1[C@@H]2CN(C(=O)[C@H](C(C)(C)C)NC(=O)O[C@@H]3CCCC[C@H]3CCCCCc3nc4ccc(OC)cc4nc3O2)[C@@H]1C(=O)N[C@]1(C(=O)NS(=O)(=O)C2CC2)C[C@H]1C(F)F` [Example 66, (4aR,8S,11 S,12S,13R,25aR)-8-tert-butyl-N-[(1R,2R)-1-[(cyclopropylsulfonyl)carbamoyl]-2-(difluoromethyl)cyclopropyl]-12-ethyl-17-methoxy-6,9-dioxo-2,3,4,4a,6,7,8,9,12,13,21,22,23,24,25,25a-hexadecahydro-1H,11H-10,13-methanoquinoxalino[2,3-k][1,10,3,6]benzodioxadiazacyclononadecine-11-carboxamide], for which the EC50 in assay [1] is 1790 nM; in [2] it was 240 nM; in assay [3], 37 nM; in assay [4], 25 nM; in assay [5], 35 nM; in [7] it was 735 nM. Moreover, the EC50 in assay [8] came to 14 nM; in assay [9], 105 nM; in [10] it was 396 nM; in assay [11], 20 nM. Besides, the Ki in assay [6] was determined as 0.06 nM.
With `CC[C@@H]1[C@@H]2CN(C(=O)[C@H](C(C)(C)C)NC(=O)O[C@]3(C)C[C@H]3CCCCCc3nc4ccc(OC)cc4nc3O2)[C@@H]1C(=O)N[C@]1(C(=O)NS(=O)(=O)C2(C)CC2)C[C@H]1C(F)F` [Example 7, (1aR,5S,8S,9S,10R,22aR)-5-tert-butyl-N-[(1R,2R)-2-(difluoromethyl)-1-{[(1-methylcyclopropyl)sulfonyl]carbamoyl}cyclopropyl]-9-ethyl-14-methoxy-1a-methyl-3,6-dioxo-1,1a,3,4,5,6,9,10,18,19,20,21,22,22a-tetradecahydro-8H-7,10-methanocyclopropa[18,19][1,10,3,6] dioxadiazacyclononadecino[11,12-b]quinoxaline-8-carboxamide], the EC50 was found to be 67 nM in assay [1]; 6.7 nM in [2]; 4.9 nM in assay [3]; 3.2 nM in assay [4]; 3.8 nM in assay [5]; 14 nM in [7]. Moreover, the EC50 was 2.3 nM in assay [8], 4.2 nM in [9], 20 nM in assay [10] and 3.8 nM in [11]. In [6], this molecule returned a Ki of 0.06 nM.
